This is an account of results in patent US20180318381A1, “Methods of Treatment of Rhabdomyolysis” (University of Pittsburgh - Of the Commonwealth System of …, priority 2015, published 2018).

One test has as its system Friedrich's ataxia cells. As to conditions: in response to oxidative stress; cited from earlier work.
Test [1] relates to amyotrophic lateral sclerosis mouse model. The conditions noted are these: ALS mouse model; cited from earlier work.
The subject of another test is mice treated with azide. The conditions noted are these: supplementation at the same time as azide; cited from earlier work.

The structures appear in SMILES notation.

`CC1(C)CC[C@]2(NC(=O)C(C)(F)F)CC[C@]3(C)[C@H](C(=O)C=C4[C@@]5(C)C=C(C#N)C(=O)C(C)(C)[C@@H]5CC[C@]43C)[C@@H]2C1` [RTA408, N-(2-cyano-3,12-dioxo-28-noroleana-1,9(11)-dien-17-yl)-2,2-difluoro-propanamide]: the antioxidant gene expression entry with Friedrich's ataxia cells was “improve antioxidant gene expression”.
`CCCCCCC(=O)OCC(COC(=O)CCCCCC)OC(=O)CCCCCC` [triheptanoin, 1,3-di(heptanoyloxy)propan-2-yl heptanoate]: in the test on patients with LC-FAODs (7 subjects with peak CK before and after treatment, P=0.1279), the “decrease in peak CK levels (trend)” value was found to be 68%. For the same compound, the “decline in hypoglycemia event rate per year” value in the test on patients with LC-FAODs (9 subjects with hypoglycemia problems, P=0.0091) was determined as 96%. In addition, in the test on patients with LC-FAODs (LC-FAOD patients, FIG. 14), the hospitalizations entry is listed as “reduced hospitalizations”, the hypoglycemic hospitalizations result is recorded as “nearly eliminated”, the “number of days of hospital stay if hospitalized” value is “reduced” and the “number of hospitalization days with rhabdomyolysis” value is “decreased”. Further, in the test with patients with LC-FAODs (LC-FAOD patients, FIG. 14), the “number of hospitalizations with rhabdomyolysis” value is listed as “did not reduce”. For the same compound, the “peak CK levels” value in the test with patients with LC-FAODs (after treatment (from 85,855 before), 7 subjects) was 27,597 units. For the same compound, the “hypoglycemia event rate per year” value in the test on patients with LC-FAODs (after treatment (vs 0.92 before), n=9) amounted to 0.04 per year. For the same compound, the hypoglycemia-related hospitalization days/year in the test on patients with LC-FAODs (after treatment (vs 8.42 before), n=9, P=0.0257) came out at 0.18 days/year. In the test with patients with LC-FAODs (after triheptanoin initiation (vs 1.94 before), n=16), this compound registered a hospitalization event rate of 1.26. For the same compound, in the test on patients with LC-FAODs (after triheptanoin initiation (vs 5.94 before), n=9, P=0.1224), the rhabdomyolysis hospitalization days/year is on record as 2.36 days/year. Further, the mean hospitalization days/year in the test on patients with LC-FAODs (after triheptanoin initiation (vs 17.55 before), n=15) turned out to be 5.76 days/year. The hypoglycemia in patients entry in the test on patients with LC-FAODs (patients having long chain FAODs) is recorded as “essentially eliminates hypoglycemia”. The episodes of rhabdomyolysis result in the test with patients with LC-FAODs (patients having long chain FAODs on triheptanoin) is “continue to have episodes of rhabdomyolysis”. Further, the “decrease in mean hospitalization days/year” value with patients with LC-FAODs (period after triheptanoin initiation vs before, n=15, P=0.0242) is 67%.
As to `CCNC(=O)[C@]12CCC(C)(C)C[C@H]1[C@H]1C(=O)C=C3[C@@]4(C)C=C(C#N)C(=O)C(C)(C)[C@@H]4CC[C@@]3(C)[C@]1(C)CC2` [CDDO-EA, 2-cyano-3,12-dioxooleana-1,9-dien-28-oic acid-ethyl amide], the survival entry in test [1] is given as “improve survival”.
`CC(=O)OC[C@H]1O[C@@H](n2ccc(=O)[nH]c2=O)[C@H](OC(C)=O)[C@@H]1OC(C)=O` [PN401, uridine triacetate]: the “survival of the animals” value in the test on mice treated with azide is listed as “improved survival”.
